From US6476021B1 (priority 1997, dated 2002) come the findings set out here.

Counter-ions that a name gives are not always drawn.

The conditions of series [1]: rat, in vivo, 100 mg/kg.
The next series has as its target PDE type VI (Bos taurus, UniProt P11541+P23439). In words: biochemical.
In another series the target is PDE type V (Canis lupus familiaris, UniProt O77746). As to the kind of experiment: biochemical.
The conditions of series [2]: intranasal administration.
The nature of another series: in vivo. The note with it: male, Wistar, rat, plasma, inhaled or intranasal, 0.3 mg/kg.
For series [3] the following is noted: rats.
Source text: (§1) Eight-week-old male Wistar rats were anesthetized with intraperitoneal injection of urethane at 1 g/kg. The cervical portion was incised so that the trachea was exposed, and a polyethylene tube (SP120, Natsume) was inserted into the trachea. Then, a part of the esophagus was incised and a polyethylene tube with the same diameter was inserted into postnasal cavity, the tip was closed with absorbent cotton and glue. Leak of the drug solution from the nasoplatine was avoided by closing it with synthetic glue. Drugs were dissolved in 0.1% tartaric acid solution and administered through the nostrils at 500 μl/kg with micropipette and the nostrils were rapidly closed with glue. For the control, drugs were intravenously administered to rats. Constant volume of blood was intermittently collected from the tail vein into heparinized capillary after administration, and plasma was separated by centrifugation. Constant volume of plasma was extracted with t-butyl-methyl-ether three times and the organic phase was evaporated and dissolved in the HPLC initial phase. Constant volume of the organic phase was applied to the HPLC system equipped with an ultraviolet detector, and plasma drug concentration was determined with the reverse phase column. The time to reach the maximal concentration (Tmax), the mean residence time (MRT) and the mean absorption time (MAT) were calculated from measured values.
The target in a further series is PDE type III (Canis lupus familiaris, UniProt A0A8I3NYE0). To be noted: read-out: Inhibition Activity IC50 Type III; PDE type III from canine aorta; 1 μM substrate.
Sequence of PDE type III (A0A8I3NYE0 1-1135): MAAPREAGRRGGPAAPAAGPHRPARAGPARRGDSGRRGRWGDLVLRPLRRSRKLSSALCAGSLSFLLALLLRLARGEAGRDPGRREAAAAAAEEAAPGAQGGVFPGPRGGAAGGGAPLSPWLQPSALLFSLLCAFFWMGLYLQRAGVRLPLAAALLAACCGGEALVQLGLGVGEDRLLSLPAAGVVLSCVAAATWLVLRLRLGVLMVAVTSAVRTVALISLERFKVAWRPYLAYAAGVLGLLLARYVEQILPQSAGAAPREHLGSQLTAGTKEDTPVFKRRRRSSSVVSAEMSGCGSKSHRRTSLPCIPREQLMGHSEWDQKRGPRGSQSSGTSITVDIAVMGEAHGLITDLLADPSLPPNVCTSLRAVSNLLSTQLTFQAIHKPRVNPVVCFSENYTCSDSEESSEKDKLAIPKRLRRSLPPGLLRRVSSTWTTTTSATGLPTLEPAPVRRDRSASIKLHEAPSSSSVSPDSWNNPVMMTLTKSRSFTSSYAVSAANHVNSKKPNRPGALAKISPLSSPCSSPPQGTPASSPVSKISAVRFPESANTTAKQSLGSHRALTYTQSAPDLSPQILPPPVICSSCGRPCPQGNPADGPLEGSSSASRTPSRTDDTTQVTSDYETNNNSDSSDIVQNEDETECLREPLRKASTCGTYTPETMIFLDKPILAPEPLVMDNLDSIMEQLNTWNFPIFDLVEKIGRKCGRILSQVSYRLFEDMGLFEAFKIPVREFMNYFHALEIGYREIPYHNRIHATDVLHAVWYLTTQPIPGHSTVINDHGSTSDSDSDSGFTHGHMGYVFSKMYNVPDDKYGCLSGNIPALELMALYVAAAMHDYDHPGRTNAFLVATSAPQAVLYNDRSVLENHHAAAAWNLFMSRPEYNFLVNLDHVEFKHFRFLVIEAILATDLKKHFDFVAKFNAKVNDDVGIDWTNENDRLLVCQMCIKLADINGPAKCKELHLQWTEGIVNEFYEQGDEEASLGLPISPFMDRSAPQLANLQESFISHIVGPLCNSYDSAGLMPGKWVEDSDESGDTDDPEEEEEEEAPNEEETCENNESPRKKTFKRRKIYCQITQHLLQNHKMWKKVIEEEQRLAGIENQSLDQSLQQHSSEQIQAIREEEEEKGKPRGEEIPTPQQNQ

Sequence of PDE type VI (P11541 2-856): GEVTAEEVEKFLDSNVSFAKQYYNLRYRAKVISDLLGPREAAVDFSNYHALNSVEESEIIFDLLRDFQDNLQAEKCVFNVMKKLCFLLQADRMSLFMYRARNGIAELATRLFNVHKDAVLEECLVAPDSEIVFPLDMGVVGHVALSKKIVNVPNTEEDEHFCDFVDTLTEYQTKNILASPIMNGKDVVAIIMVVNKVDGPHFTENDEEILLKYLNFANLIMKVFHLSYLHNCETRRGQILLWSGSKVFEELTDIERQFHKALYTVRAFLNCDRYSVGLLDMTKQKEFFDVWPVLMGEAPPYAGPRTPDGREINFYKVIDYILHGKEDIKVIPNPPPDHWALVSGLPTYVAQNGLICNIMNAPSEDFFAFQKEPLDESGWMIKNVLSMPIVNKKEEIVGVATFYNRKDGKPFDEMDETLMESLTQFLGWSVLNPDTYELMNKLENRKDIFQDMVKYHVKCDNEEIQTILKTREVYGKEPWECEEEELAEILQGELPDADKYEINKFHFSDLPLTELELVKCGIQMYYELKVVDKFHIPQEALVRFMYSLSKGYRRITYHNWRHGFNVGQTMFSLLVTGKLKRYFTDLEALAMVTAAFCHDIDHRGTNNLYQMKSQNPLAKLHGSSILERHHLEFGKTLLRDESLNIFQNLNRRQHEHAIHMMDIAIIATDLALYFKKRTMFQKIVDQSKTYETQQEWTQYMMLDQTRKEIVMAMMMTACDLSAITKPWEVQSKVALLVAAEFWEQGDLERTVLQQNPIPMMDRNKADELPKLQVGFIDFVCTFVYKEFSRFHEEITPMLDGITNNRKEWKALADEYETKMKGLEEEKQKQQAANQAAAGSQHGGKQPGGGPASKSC
Sequence of PDE type VI (P23439 2-850): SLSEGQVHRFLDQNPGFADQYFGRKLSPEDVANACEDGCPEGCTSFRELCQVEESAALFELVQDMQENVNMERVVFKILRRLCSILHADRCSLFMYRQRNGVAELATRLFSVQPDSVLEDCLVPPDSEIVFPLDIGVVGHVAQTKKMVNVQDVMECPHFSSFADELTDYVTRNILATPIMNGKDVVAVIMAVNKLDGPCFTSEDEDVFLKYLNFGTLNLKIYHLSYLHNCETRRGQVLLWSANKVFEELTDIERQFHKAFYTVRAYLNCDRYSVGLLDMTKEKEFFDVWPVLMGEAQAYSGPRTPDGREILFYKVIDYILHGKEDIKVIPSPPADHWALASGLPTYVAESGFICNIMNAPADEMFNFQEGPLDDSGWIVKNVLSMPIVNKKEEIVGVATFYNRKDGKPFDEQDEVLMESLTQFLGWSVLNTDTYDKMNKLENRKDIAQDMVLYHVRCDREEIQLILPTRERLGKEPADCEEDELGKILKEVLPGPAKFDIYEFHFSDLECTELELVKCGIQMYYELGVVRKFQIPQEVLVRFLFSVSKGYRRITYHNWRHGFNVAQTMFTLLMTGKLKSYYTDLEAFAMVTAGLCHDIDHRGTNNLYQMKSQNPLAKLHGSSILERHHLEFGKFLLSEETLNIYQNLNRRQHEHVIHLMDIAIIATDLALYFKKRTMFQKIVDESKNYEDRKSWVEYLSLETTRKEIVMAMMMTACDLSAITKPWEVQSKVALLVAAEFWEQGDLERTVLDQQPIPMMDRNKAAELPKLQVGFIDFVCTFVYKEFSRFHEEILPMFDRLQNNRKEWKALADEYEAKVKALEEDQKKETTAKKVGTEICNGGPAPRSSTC
Source text for in vivo: as §1

For the molecule `COc1cc2c3c(c1)c(=O)c(Cc1cncnc1)cn3-c1cc(Br)ccc1S2`, the melting point – broadly, the temperature, or range, at which the solid turns liquid – was 206.6 to 210.7 °C.

Regarding `O=c1c(Cc2cccnc2)cn2c3c(cc(O)cc13)Sc1ccc(Br)cc1-2`, the melting point was 297.4 °C (dec.).

Turning to `O=c1c(Cc2cccnc2)cn2c3ccccc3c(=O)c3cccc1c32` [Example 18, 2-(3-pyridylmethyl)-3H,7H-pyrido[3,2,1-de]acridin-3,7-dione], in series [1], the “body weights and general symptoms” value is recorded as “nothing abnormal”; the “death of animals until the next day after the end of administration” value (“death of animals until the next day” below) is “none of the animals were found to be dead”.

Turning to `COc1cc2c3c(c1)c(=O)c(C)cn3-c1cc(Br)ccc1S2`, the melting point fell in the range of 231.7 to 233.7 °C.

Take `O=c1ccn2c3c(cccc13)Nc1ccccc1-2` [Example 14, 3H,7H-pyrido[3,2,1-depphenazin-3-one]: in series [1], the “body weights and general symptoms” value is “nothing abnormal”; the “death of animals until the next day” value is given as “none of the animals were found to be dead”.

Turning to `CC(C)N(CCOc1cc2c3c(c1)c(=O)c(Cc1cccnc1)cn3-c1cc(Br)ccc1S2)C(C)C` [Example 51], the half-inhibitory concentration (IC50) – broadly, the concentration at which inhibition is half-maximal – against PDE type VI was found to be 180 nM; against PDE type V it was 11 nM.

The molecule `COc1cc2c3c(c1)c(=O)c(Cc1cccnc1)cn3-c1cc(Br)ccc1S2` had a melting point of 185.7 to 187.4 °C.

`O=c1c(Cc2cccnc2)cn2c3c(cc(OCCCO)cc13)Sc1ccc(Br)cc1-2` displayed a melting point of 189.1 to 191.3 °C.

As to `O=c1ccn2c3cnccc3c3cccc1c32`, the melting point was 211.3 °C (dec.).

Regarding `O=c1ccn2c3ccc(Cl)cc3c3cncc1c32`, the melting point was 280 °C (dec.).

`COc1cc2c(=O)c(Cc3cccnc3)cn3c4cc(Br)ccc4c(=O)c(c1)c23` came in with a melting point of 247.5 to 251.1 °C.

Take `O=c1c(Cc2cccnc2)cn2c3c(cc(OCc4cccnc4)cc13)Sc1ccc(Br)cc1-2` [Example 39, 10-bromo-2-(3-pyridylmethyl)-5-(3-pyridylmethyloxy)-3H-pyrido[3,2,1-kl]phenothiazin-3-one]: the melting point is 170.8 to 172.1 °C. For the same molecule, in series [2], the “abnormalities in nasal mucosa during the experimental period” value is on record as “no abnormalities” and the “irritativeness from the observation at drug administration” value is on record as “no irritativeness”. The molecule also came in with a half-inhibitory concentration (IC50) against PDE type VI of 61 nM. At PDE type V, this molecule registered an IC50 of 3.8 nM.

Regarding `O=c1c(Cc2cccnc2)cn2c3c(cccc13)Oc1ccccc1-2` [Example 4, 2-(3-pyridylmethyl)-3H-pyrido[3,2,1-kl]phenoxazin-3-one], in series [1], the “body weights and general symptoms” value is on record as “nothing abnormal”; the “death of animals until the next day” value is recorded as “none of the animals were found to be dead”.

Molecule `Cc1cn2c3c(cc(OCCCO)cc3c1=O)Sc1ccc(Br)cc1-2` displayed a melting point of 188.9 to 197.8 °C.

With `CC(=O)N1c2ccccc2-n2cc(Cc3ccccc3)c(=O)c3cccc1c32` [Example 10, 7-acetyl-2-benzyl-3H,7H-pyrido[3,2,1-de]phenazin-3-one], in series [1], the “body weights and general symptoms” value is “nothing abnormal”; the “death of animals until the next day” value is “none of the animals were found to be dead”.

In turn, `CS(=O)(=O)O.CS(=O)(=O)O.O=c1c(Cc2cccnc2)cn2c3c(cc(OCc4cccnc4)cc13)Sc1ccc(Br)cc1-2` [Example 81, 10-bromo-2-(3-pyridylmethyl)-5-(3-pyridylmethyloxy)-3H-pyrido[3,2,1-kl]phenothiazin-3-one dimethanesulfonate] showed a melting point of 238.7 to 242.3 °C. In addition, in the series “in vivo”, the MRT (in general, the average time that molecules of a dose stay in the body) was in the range of 48 to 60 min and the time of peak concentration (Tmax) (as a rule, the time at which the peak concentration occurs) lay within 12 to 30 min. Also, in series [3], the “absorption by intranasal administration” value is “rapid and effective absorption”. In series [3] (intranasal administration), the “Tmax and MRT in comparison with oral administration” value is “shortened”; the duration result is recorded as “proper duration”; the first-pass effect result was “no first-pass effect”. Moreover, in series [3] (intranasal administration, dose 0.3 mg/kg), the MAT is reported as 0.2 ˜ 0.3 hr.

For the molecule `CCCc1nn(C)c2c(=O)[nH]c(-c3cc(S(=O)(=O)N4CCN(C)CC4)ccc3OCC)nc12` [Sildenafil, 5-[2-ethoxy-5-(4-methylpiperazin-1-ylsulphonyl)phenyl]-1-methyl-3-propyl-6,7-dihydro-1H-pyrazolo[4,3-d]pyrimidin-7-one citrate], the IC50 on PDE type III stood at 13000 nM.

In turn, `COc1cc2c3c(c1)c(=O)c(Cc1cccnc1)cn3-c1cc(Br)ccc1O2` displayed a melting point of 277.1 to 280.3 °C.

As to `O=c1c(Cc2cccnc2)cn2c3c(cc(OCCCO)cc13)Sc1cc(Br)ccc1-2`, the melting point fell in the range of 215.7 to 218.4 °C.

With `O=c1c(Cc2cccnc2)cn2c3cc(Br)ccc3c(=O)c3cc(O)cc1c32`, the melting point is more than 300 °C.

For the molecule `Cc1cn2c3c(cc(O)cc3c1=O)Sc1ccc(Br)cc1-2`, the melting point was more than 300 °C.

Turning to `O=c1ccn2c3c(cc(Cl)cc13)Sc1cc(Cl)ccc1-2`, the melting point is more than 300 °C.

Take `CN1c2ccccc2-n2ccc(=O)c3cccc1c32`: the melting point was 232.8 to 234.5 °C.

`O=c1ccn2c3c(cc(Cl)cc13)Oc1cc(Cl)ccc1-2`: the melting point is more than 300 °C.

`O=c1c(Cc2ccccc2)cn2c3c(cc(O)cc13)Sc1ccc(Br)cc1-2` yielded a melting point of 268.1 to 274.3 °C.

For the molecule `O=c1c(Cc2cccnc2)cn2c3c(cc(OCc4ccncc4)cc13)Sc1ccc(Br)cc1-2` [Example 43, 10-bromo-2-(3-pyridylmethyl)-5-(4-pyridylmethyloxy)-3H-pyrido[3,2,1-kl]phenothiazin-3-one], the melting point lay within 194.2 to 196.1 °C. For the same molecule, half-maximal inhibition against PDE type VI (IC50) was put at 36 nM. Besides, at PDE type V, the IC50 was 2.8 nM.

As for `COc1cc2c3c(c1)c(=O)c(Cc1ccccc1)cn3-c1cc(Br)ccc1S2`, the melting point was 218.1 to 219.3 °C.

In turn, `O=c1c(Cc2cccnc2)cn2c3c(cc(OCc4ccccn4)cc13)Sc1ccc(Br)cc1-2` [Example 44, 10-bromo-2-(3-pyridylmethyl)-5-(2-pyridylmethyloxy)-3H-pyrido[3,2,1-kl]phenothiazin-3-one] displayed a melting point of 94.6 to 96.4 °C.

For the molecule `COc1cc2c3c(c1)c(=O)c(Cc1cccnc1)cn3-c1ccc(Br)cc1S2`, the melting point was 137.3 to 138.1 °C.

`O=c1c(Cc2ccccc2)cn2c3c(cc(OCCCO)cc13)Sc1ccc(Br)cc1-2` yielded a melting point of 152 to 168.3 °C.

Turning to `O=c1c(Cc2cccnc2)cn2c3cc(Br)ccc3c(=O)c3cc(OCCCO)cc1c32` [Example 34, 10-bromo-5-(3-hydroxypropyloxy)-2-(3-pyridylmethyl)-3H,7H-pyrido[3,2,1-de]acridin-3,7-dione], the melting point is 165 °C (dec.).

On to `O=c1c(Cc2cccnc2)cn2c3c(cc(OCCN4CCCCC4)cc13)Sc1ccc(Br)cc1-2` [Example 50], for which the melting point lay in the range of 166.5 to 169 °C.

In turn, `O=c1c(Cc2cccnc2)cn2c3cc(Br)ccc3c(=O)c3cc(OCc4cccnc4)cc1c32` [Example 35, 10-bromo-2-(3-pyridylmethyl)-5-(3-pyridylmethyloxy)-3H,7H-pyrido[3,2,1-de]acridin-3,7-dione] came in with a melting point of 262.4 to 264.6 °C. This molecule returned a concentration for half-maximal inhibition (IC50) on PDE type VI of 15 nM. This molecule gave an IC50 against PDE type V of 1.8 nM.

`CN(C)CCCOc1cc2c3c(c1)c(=O)c(Cc1cccnc1)cn3-c1cc(Br)ccc1S2`: the melting point lay within 160.3 to 163.3 °C.

Take `CC(=O)N1c2ccccc2-n2ccc(=O)c3cccc1c32`: the melting point was 275 °C (dec.).
